# From PMC3983201, “6-Methoxyflavanones as Bitter Taste Receptor Blockers for hTAS2R39” (PLoS ONE, 2014)
# Target: T1, hTAS2R16 (Homo sapiens, UniProt Q9NYV7)
# T1 construct: expressed in transfected cells; host or cells: induced versus non-induced cells
# T1 sequence (Q9NYV7 1-291): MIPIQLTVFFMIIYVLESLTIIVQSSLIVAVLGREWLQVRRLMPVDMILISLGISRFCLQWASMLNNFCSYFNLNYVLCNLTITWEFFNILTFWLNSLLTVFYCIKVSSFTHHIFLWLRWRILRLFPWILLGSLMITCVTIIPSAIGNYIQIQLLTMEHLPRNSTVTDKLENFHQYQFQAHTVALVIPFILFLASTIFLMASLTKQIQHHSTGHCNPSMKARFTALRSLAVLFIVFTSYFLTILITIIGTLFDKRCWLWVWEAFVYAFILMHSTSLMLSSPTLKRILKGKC
# Assay: Calcium assay of hTAS2R16 activation/inhibition (salicin as agonist)
# Type: cell-based
# Details: for inhibition of salicin response on hTAS2R16: 10 mM salicin, simultaneous and stepwise addition
# Protocol: Cells were seeded into poly-L-lysine-coated (Sigma-Aldrich) 96-well plates (black wall, clear bottom, Greiner bio-one, Frickenhausen, Germany) at a density of 7*10^3 cells in 100 μL/well and cultured for 24 h. Transcription of the receptors was induced by adding 0.25 μg/mL doxycycline (Sigma-Aldrich). Cells were induced for 24 h and then loaded with the calcium-sensitive fluorescent dye Fluo-4-AM (2.5 μM, Invitrogen), which was dissolved in Tyrode's buffer containing 5% (v/v) tetracycline-free FBS (Lonza). One hour after loading, cells were washed with Tyrode's buffer and taken up in Tyrode's buffer. Stock solutions of test compounds were prepared in DMSO and diluted to the appropriate concentration in Tyrode's buffer, not exceeding a DMSO concentration of 1% (v/v).
# Receptor activation or inhibition was measured via intracellular Ca^2+ release in a FlexStation II 384 or FlexStation III (Molecular Devices Corporation, Sunnyvale, CA, USA) by measuring fluorescence (excitation 485 nm/emission 520 nm) for either 90 s or 240 s at 37°C. Two methods of compound administration were applied: simultaneous and stepwise addition of potential antagonist and agonist. The first 17 s before compound addition were used for baseline determination. For the simultaneous method, agonist and potential antagonist were pre-mixed, administered after 17 s, and fluorescence was measured for in total 90 s. For the stepwise method, after 17 s, the potential antagonist was added, fluorescence was measured until 120 s, and after 120 s the agonist was added and measured for another 120 s, in total 240 s. […] Each experiment was performed at least in duplicate in separate experiments (as indicated for each figure).
# Screening for hTAS2R39 inhibition by flavanones was performed with simultaneous application of agonist (200 μM ECG) and putative antagonist (250 μM flavanone). Inhibition was indicated when [drawing 1] . In case of indicated inhibition, flavanones were applied at different concentrations, in order to test for dose-dependent inhibition, at the EC80 concentration of the agonist. Another agonist of hTAS2R39, denatonium benzoate, was used in inhibition experiments at 1.7 mM (EC80). hTAS2R14 inhibition was tested with 640 μM ECG or 70 μM genistein as agonists, representing their respective EC80 concentrations. To investigate the specificity of flavanones for inhibition of hTAS2R39 and hTAS2R14, another bitter taste receptor, hTAS2R16 (not known to be activated by flavonoids), was used in inhibition experiments ( File S3 ) towards its agonist salicin.
# SUPPORTING INFORMATION to the article “6-Methoxyflavanones as Bitter Taste Receptor Blockers for hTAS2R39” by Roland, WSU; Gouka, RJ; Gruppen, H; Driesse, M; van Buren, L; Smit, G; Vincken, J-P File S3 Investigation of identified inhibitors on hTAS2R16.
# To investigate whether the hTAS2R39 inhibitors 6,3’-dimethoxyflavanone (3), 4’- fluoro-6-methoxyflavanone (6), and 6-methoxyflavanone (11) were able to inhibit a bitter receptor not known for flavonoid activation, hTAS2R16 was selected for inhibition experiments. Measuring dose-response curves of the hTAS2R16 agonist […]
# Figure S3. Inhibition of response of 10 mM salicin (---) on hTAS2R16 (induced (●), non-induced (○)) by 4’-fluoro-6-methoxyflavanone (6) after simultaneous addition (A) and stepwise addition (B), by 6,3’-dimethoxyflavanone (3) after simultaneous addition (C) and stepwise addition (D), and by 6-methoxyflavanone (11) after simultaneous addition (E) and stepwise addition (F). […]
inhibition of salicin response on hTAS2R16,"inhibitory effect of probenecid on hTAS2R16 assay (0.5 mM probenecid in Tyrode's buffer and dye loading buffer, agonist salicin)",Compound
no inhibition,,"COc1ccc2c(c1)C(=O)CC(c1ccc(F)cc1)O2 (stereo not drawn) [Compound 6, 4′-Fluoro-6-methoxyflavanone]"
no inhibition,,"COc1ccc2c(c1)C(=O)CC(c1ccccc1)O2 (stereo not drawn) [Compound 11, 6-Methoxyflavanone]"
,no inhibitory effect,"CCCN(CCC)S(=O)(=O)c1ccc(C(=O)O)cc1 [probenecid, p-(dipropylsulfamyl)benzoic acid, reference compound]"
